# Experimental data published in US20250215029A1 (Recludix Pharma, Inc., priority 2022, published 2025).
# Molecular target: T1, pY705-STAT3 in PBMC (Homo sapiens, UniProt P40763)
# T1 construct: Cryopreserved Peripheral Blood Mononuclear Cells (PBMC) are from AllCells; host or cells: cryopreserved PBMC
# Test: MSD-pSTAT-PBMC Assay (pSTAT3, IL-6 stimulated)
# Format: cell-based
# Conditions: PBMC, compound 3 hrs, then 10 ng/mL IL-6 for 10 min; Table 115; read-out: STAT3
# Source text: Cryopreserved Peripheral Blood Mononuclear Cells (PBMC) are from AllCells. Recombinant Human IL-4 and IL-6 are from Peprotech. Mouse monoclonal anti-STAT3 antibody, rabbit monoclonal anti-pY705-STAT3 antibody, rabbit monoclonal Anti-pY641-STAT6 antibody, and lysis buffer are from Cell Signaling Technology (CST). Mouse monoclonal anti-STAT6 antibody is from BioLegend. Assay plates, blocker, and anti-rabbit secondary antibody are from Meso Scale Discovery (MSD).
# Cyropreserved PBMCs were thawed out and allowed to recover overnight in IMDM+10% heat-inactivated FBS prior to plating 50,000 (STAT3) or 25,000 (STAT6) cells per well in 96-well U-bottom tissue culture plates. Cells were treated with compound for 3 hrs, then stimulated with 10 ng/mL IL-6 (STAT3) or 1 ng/mL IL-4 (STAT6) for 10 min. Cells were then spun down and washed with ice-cold PBS prior to lysing the cell pellet with 1× lysis buffer (CST) with 1× HALT protease and phosphatase inhibitor cocktail (Thermo). Lysates were transferred to and incubated overnight at 4° C. with shaking in QuickPlex 96-well high bind assay plates (MSD) pre-coated overnight with 30 μL per well of 0.6 μg/mL mouse monoclonal anti-STAT3 antibody (STAT3) or 2 μg/mL mouse monoclonal anti-STAT6 antibody (STAT6) in 1× PBS, and pre-blocked for 1 hour with 3% Blocker-A (MSD). Captured protein in the assay plates were then washed and probed with 25 μL per well of […] rabbit monoclonal anti-pY705-STAT3 antibody (STAT3) or 0.18 μg/ml rabbit monoclonal Anti-pY641-STAT6 antibody (STAT6) in 1% Blocker-A for 1 hour at room temperature with shaking, then washed and probed with 25 ul per well of 1 ug/ml Sulfo-TAG Labeled Goat Anti-Rabbit Antibody (MSD) in 1% Blocker-A for 1 hour at room temperature with shaking. Assay plates were then washed and 150 μL of 1× Read Buffer-T (MSD) was added to each well prior to reading on an SQ120 MSD Plate Reader. Assay signal from each sample was subtracted by the signal from unstimulated control wells and normalized to DMSO control wells. IC50 values were calculated using Graph Pad Prism Dose-Response Nonlinear Regression with variable slope. For both pSTAT3 and pSTAT6 A=≤100 nM; B 100-1000 nM; C=>1000-3000 nM; D=>3 μM; and NT=Not Tested.
# T1 sequence (P40763 whole entry): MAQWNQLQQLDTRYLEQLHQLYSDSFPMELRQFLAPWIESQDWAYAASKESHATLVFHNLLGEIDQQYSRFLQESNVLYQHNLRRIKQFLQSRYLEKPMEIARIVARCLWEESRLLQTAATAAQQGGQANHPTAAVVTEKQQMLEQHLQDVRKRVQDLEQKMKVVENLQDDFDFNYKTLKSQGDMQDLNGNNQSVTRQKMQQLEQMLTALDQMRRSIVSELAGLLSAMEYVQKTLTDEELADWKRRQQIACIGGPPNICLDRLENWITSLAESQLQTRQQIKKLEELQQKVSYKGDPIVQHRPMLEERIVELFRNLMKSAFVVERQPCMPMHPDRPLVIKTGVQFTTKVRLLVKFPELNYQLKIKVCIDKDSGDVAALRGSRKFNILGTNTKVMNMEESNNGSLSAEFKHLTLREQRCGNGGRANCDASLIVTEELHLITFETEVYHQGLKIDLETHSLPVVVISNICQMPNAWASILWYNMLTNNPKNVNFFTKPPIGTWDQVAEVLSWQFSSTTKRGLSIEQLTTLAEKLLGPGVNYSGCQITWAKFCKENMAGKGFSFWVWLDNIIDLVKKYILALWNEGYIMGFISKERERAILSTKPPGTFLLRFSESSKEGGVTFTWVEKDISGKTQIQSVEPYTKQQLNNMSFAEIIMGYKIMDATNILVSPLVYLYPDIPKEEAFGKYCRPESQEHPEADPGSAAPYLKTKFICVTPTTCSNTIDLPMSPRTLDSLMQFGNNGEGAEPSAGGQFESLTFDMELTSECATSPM
row,SMILES,IC50
1,"CCCOC(=O)[C@H](C)N[P@](=O)(Oc1ccccc1)[C@@H](F)c1ccc2sc(C(=O)N[C@H]3CCC[C@H]4CC[C@@H](C(=O)N5CC(c6cccnc6)C5)N4C3=O)cc2c1 (single isomer, unassigned) [Compound 446]",< 100 nM
2,"CCCOC(=O)[C@H](C)N[P@@](=O)(Oc1ccccc1)[C@H](F)c1ccc2sc(C(=O)N[C@H]3CCC[C@H]4CC[C@@H](C(=O)N5CC(c6cccnc6)C5)N4C3=O)cc2c1 (single isomer, unassigned) [Compound 463]",< 100 nM
3,"COc1ccncc1C1CN(C(=O)[C@@H]2CC[C@@H]3CCC[C@H](NC(=O)c4cc5cc([C@@H](F)[P@@](=O)(N[C@@H](C)C(=O)OC(C)C)Oc6ccccc6)ccc5s4)C(=O)N32)C1 (single isomer, unassigned) [Compound 955]",< 100 nM
4,"COc1ccncc1C1CN(C(=O)[C@@H]2CC[C@@H]3CCC[C@H](NC(=O)c4cc5cc([C@@H](F)[P@@](=O)(N[C@@H](C)C(=O)OC(C)C)Oc6ccccc6)ccc5s4)C(=O)N32)C1 (single isomer, unassigned) [Compound 956]",< 100 nM
5,"COc1ccncc1C1CN(C(=O)[C@@H]2CC[C@@H]3CCC[C@H](NC(=O)c4cc5cc([C@H](F)[P@@](=O)(N[C@@H](C)C(=O)OCC(C)(C)C)Oc6ccccc6)ccc5s4)C(=O)N32)C1 (single isomer, unassigned) [Compound 959]",< 100 nM
6,"COc1ccncc1C1CN(C(=O)[C@@H]2CC[C@@H]3CCC[C@H](NC(=O)c4cc5cc([C@H](F)[P@](=O)(N[C@@H](C)C(=O)OCC(C)(C)C)Oc6ccccc6)ccc5s4)C(=O)N32)C1 (single isomer, unassigned) [Compound 960]",100 to 1000 nM
7,"CCCOC(=O)[C@H](C)N[P@](=O)(Oc1ccccc1)[C@H](F)c1ccc2sc(C(=O)N[C@H]3CCC[C@H]4CC[C@@H](C(=O)N5CC(c6cnccc6F)C5)N4C3=O)cc2c1 (single isomer, unassigned) [Compound 997]",< 100 nM
8,"CCCOC(=O)[C@H](C)N[P@](=O)(Oc1ccccc1)[C@H](F)c1ccc2sc(C(=O)N[C@H]3CCC[C@H]4CC[C@@H](C(=O)N5CC(c6cnccc6F)C5)N4C3=O)cc2c1 (single isomer, unassigned) [Compound 998]",< 100 nM
9,"CCCOC(=O)[C@H](C)N[P@](=O)(Oc1ccccc1)[C@H](F)c1ccc2sc(C(=O)N[C@H]3CCC[C@H]4CC[C@@H](C(=O)N5CC(c6cnccc6OC)C5)N4C3=O)cc2c1 (single isomer, unassigned) [Compound 999]",< 100 nM
10,"CCCOC(=O)[C@H](C)N[P@@](=O)(Oc1ccccc1)[C@H](F)c1ccc2sc(C(=O)N[C@H]3CCC[C@H]4CC[C@@H](C(=O)N5CC(c6cnccc6C)C5)N4C3=O)cc2c1 (single isomer, unassigned) [Compound 1000]",< 100 nM
11,"CCCOC(=O)[C@H](C)N[P@@](=O)(Oc1ccccc1)[C@H](F)c1ccc2sc(C(=O)N[C@H]3C[C@@H](C)C[C@H]4CC[C@@H](C(=O)N5CC(c6cnccc6C)C5)N4C3=O)cc2c1 (single isomer, unassigned) [Compound 1001]",< 100 nM
12,"COc1ccncc1C1CN(C(=O)[C@@H]2CC[C@@H]3CCC[C@H](NC(=O)c4cc5cc([C@H](F)[P@@](=O)(N[C@@H](C)C(=O)OC(C)C)Oc6ccccc6)ccc5s4)C(=O)N32)C1 (single isomer, unassigned) [Compound 1023]",100 to 1000 nM
13,"CCCOC(=O)[C@H](C)N[P@@](=O)(Oc1ccccc1)[C@@H](F)c1ccc2sc(C(=O)N[C@H]3CCC[C@H]4CC[C@@H](C(=O)N5CC(c6cnccc6C)C5)N4C3=O)cc2c1 (single isomer, unassigned) [Compound 1027]",< 100 nM
14,"CCCOC(=O)[C@H](C)N[P@@](=O)(Oc1ccccc1)[C@@H](F)c1ccc2sc(C(=O)N[C@H]3CCC[C@H]4CC[C@@H](C(=O)N5CC(c6cnccc6OC)C5)N4C3=O)cc2c1 (single isomer, unassigned) [Compound 1032]",< 100 nM
